Test results reported in PMC2362735, “New semisynthetic vinca alkaloids: chemical, biochemical and cellular studies” (British Journal of Cancer, 1999).
Like-named read-outs stand apart in the source and are kept apart here.

Legend:
[1] = system: Human neuroblastoma cell line (SH-SY5Y); test: Microculture tetrazolium assay (MTA), cytotoxicity; conditions: Homo sapiens, 96 h
From the text: (§1) The numerous antimitotic drugs already developed and therapeu- tically used for a large number of pathologies belong to different classes based on their chemical structure and other distinctive features. Antimitotic drugs usually target the tubulin/microtubule network of the cytoskeleton that is formed by assembly of cyto- plasmic tubulin dimers. The stability of the different microtubular structures varies considerably; some of their functions depend on their lability. The lability is augmented by the extreme sensitivity to various drugs. Several synthetic and natural compounds interact specifically with tubulin and/or microtubule, fundamentally destroying its dynamic character and leading to cell death. […] Because of their extensive clinical use, it is important to synthesize additional agents having at least the same biological activity. […] Nevertheless, it is unclear yet how the anti-calmodulin activity of these drugs is related to their desired and undesired pharmacological effects. […] The synthesis of the KAR derivatives are presented. […] Taxol, GTP and trifluoperazine were purchased from Sigma. All organic reagents for synthesis of the new compounds were obtained from Aldrich and were of the highest grade. All other chemicals were reagent grade commercial preparations. […] Tubulin was stored in 1 M sucrose, 10 mM sodium phosphate buffer, 0.5 mM magnesium chloride and 0.1 mM GTP, pH 7.0, at -80C and dialysed against the appropriate buffer before use. […] PFK, aldolase and glycerol-3-phosphate dehydrogenase- triosephosphate isomerase purified from rabbit skeletal muscle were purchased in ammonium sulphate suspensions from Sigma or Boehringer. The enzyme suspensions were centrifuged at 10 000g for 5 min. The pellets were suspended in the appropriate buffer, then the enzymes were gel filtered or dialysed in the same buffer to remove ammonium sulphate. […] (Figure 1B; R1 , CH3; R2 , CH2 CH2 Cl). […] After 2 h incubation at room temperature, 200 ml dried toluene was added to the reaction mixture. […] The mixture was stirred for 30 min. After separation of the organic phase, it was washed with water (3 x 30 ml) and dried with potassium sulphate and evaporated on a water bath of 35-40C at 20-27 hPa. The resulting material was chromatographed on silica gel (500 g, bead size of 0.040- 0.063 mm) column (30 mm x 500 mm) using ethyl acetate/ethanol (9:1) mixture as eluent. […] The mixture was kept for 4 h at room temperature and then evaporated on a water bath at 40C under a vacuum of 80 hPa to a final volume of 5-6 ml. […] (Figure 1B, R1 , CHO; R2 , CH2 CH2 Cl). […] Synthesis of KAR-4 [3-allyl-2,4-dioxo-3,5-spiro-oxazolidino- 4-deacetoxy-vinblastine] (Figure 1B; R1 , CH3; R2 , CH2 CH=CH2 ). […] NMR measurements were carried out on a Varian Unity plus-500 instrument (500 MHz for 1H and 125 MHz for 13C) in DMSO. Chemical shifts were determined relative to dTMS = 0.00 p.p.m. 1H and 13C signal assignments were verified by a concerted use of two-dimensional 1H-1H and 1H-13C shift correlation methods (DQFCOSY, HSQC, HMBC) and NOESY experiments. The gradient-enhanced DQFCOSY, HSQC, HMBC and NOESY experiments were recorded by using the standard spectrometer software package. A mixing time of tmix = 0.5 s was used for the NOESY experiments.

[2] = system: tubulin; test: Taxol-induced tubulin polymerization, turbidity at 350 nm; assay type: biochemical, calf; conditions: taxol-induced assembly, MES buffer pH 6.8, 37C; average of three independent measurements; read-out: Anti-tubulin effect, turbidity at 350 nm, IC50
From the text: as §1

[3] = biological target: T1, calmodulin (Bos taurus, UniProt P62157); design: method as in Molnar et al (1995); conditions: ref Molnar et al (1995); cited from earlier work
T1 construct: Calmodulin from bovine brain was purified to homogeneity using Phenyl-Sepharose (Pharmacia) chromatography; from tissue; host or cells: bovine brain

[4] = system: mouse leukaemia P388; design: method as in Orosz et al, 1997a; conditions: P388, 0.2 mg kg-1, eightfold treatment; ref Orosz et al, 1997a; cited from earlier work
[5] = system: tubulin/microtubule, PFK-bundled microtubules; test: Tubulin polymerization with or without PFK (bundled vs single microtubules): turbidity and pelleting with SDS-PAGE; assay type: biochemical, calf; conditions: 10 M tubulin, 2 M drug, 20 µM taxol, SDS-PAGE of supernatant and pellet
From the text: The numerous antimitotic drugs already developed and therapeu- tically used for a large number of pathologies belong to different classes based on their chemical structure and other distinctive features. Antimitotic drugs usually target the tubulin/microtubule network of the cytoskeleton that is formed by assembly of cyto- plasmic tubulin dimers. The stability of the different microtubular structures varies considerably; some of their functions depend on their lability. The lability is augmented by the extreme sensitivity to various drugs. Several synthetic and natural compounds interact specifically with tubulin and/or microtubule, fundamentally destroying its dynamic character and leading to cell death. […] Because of their extensive clinical use, it is important to synthesize additional agents having at least the same biological activity. […] Nevertheless, it is unclear yet how the anti-calmodulin activity of these drugs is related to their desired and undesired pharmacological effects. […] The synthesis of the KAR derivatives are presented. […] Taxol, GTP and trifluoperazine were purchased from Sigma. All organic reagents for synthesis of the new compounds were obtained from Aldrich and were of the highest grade. All other chemicals were reagent grade commercial preparations. […] Tubulin was stored in 1 M sucrose, 10 mM sodium phosphate buffer, 0.5 mM magnesium chloride and 0.1 mM GTP, pH 7.0, at -80C and dialysed against the appropriate buffer before use. […] PFK, aldolase and glycerol-3-phosphate dehydrogenase- triosephosphate isomerase purified from rabbit skeletal muscle were purchased in ammonium sulphate suspensions from Sigma or Boehringer. The enzyme suspensions were centrifuged at 10 000g for 5 min. The pellets were suspended in the appropriate buffer, then the enzymes were gel filtered or dialysed in the same buffer to remove ammonium sulphate. […] (Figure 1B; R1 , CH3; R2 , CH2 CH2 Cl). […] After 2 h incubation at room temperature, 200 ml dried toluene was added to the reaction mixture. […] The mixture was stirred for 30 min. After separation of the organic phase, it was washed with water (3 x 30 ml) and dried with potassium sulphate and evaporated on a water bath of 35-40C at 20-27 hPa. The resulting material was chromatographed on silica gel (500 g, bead size of 0.040- 0.063 mm) column (30 mm x 500 mm) using ethyl acetate/ethanol (9:1) mixture as eluent. […] The mixture was kept for 4 h at room temperature and then evaporated on a water bath at 40C under a vacuum of 80 hPa to a final volume of 5-6 ml. […] (Figure 1B, R1 , CHO; R2 , CH2 CH2 Cl). […] Synthesis of KAR-4 [3-allyl-2,4-dioxo-3,5-spiro-oxazolidino- 4-deacetoxy-vinblastine] (Figure 1B; R1 , CH3; R2 , CH2 CH=CH2 ). […] NMR measurements were carried out on a Varian Unity plus-500 instrument (500 MHz for 1H and 125 MHz for 13C) in DMSO. Chemical shifts were determined relative to dTMS = 0.00 p.p.m. 1H and 13C signal assignments were verified by a concerted use of two-dimensional 1H-1H and 1H-13C shift correlation methods (DQFCOSY, HSQC, HMBC) and NOESY experiments. The gradient-enhanced DQFCOSY, HSQC, HMBC and NOESY experiments were recorded by using the standard spectrometer software package. A mixing time of tmix = 0.5 s was used for the NOESY experiments. […] Mass spectrum was recorded on a Kratos MS 80 instrument using FAB.

With `CC[C@]1(O)C[C@@H]2CN(CCc3c([nH]c4ccccc34)[C@@](C(=O)OC)(c3cc4c(cc3OC)N(C)[C@H]3[C@@](O)(C(=O)OC)[C@H](OC(C)=O)[C@]5(CC)C=CCN6CC[C@]43[C@@H]65)C2)C1` [Vinblastine, vinblastine, reference compound] the IC50 ([1]; read-out: Cytotoxicity MTA IC50) was 5e-09 M, the IC50 ([1]; read-out: Cytotoxicity MTA IC50 (M)) was 5e-09 M and the IC50 [2] was […]. For the same compound, the “Anti-calmodulin activity: Efficiency (%)” value [3] was 61%, the T/C [4] was 199% and the “tubulin partition in pelleting experiment, without PFK” value ([5]; no PFK) was “practically all tubulin appears in the super- natants”. For the same compound, the “tubulin partition in pelleting experiment, with PFK (bundled microtubules)” value ([5]; 2 M PFK) was “significant amount of tubulins were assembled into microtubules”.
